Test results published in ChEMBL document CHEMBL4004884, “Sesquiterpene derivatives from marine sponge Smenospongia cerebriformis and their anti-inflammatory activity” (Bioorg Med Chem Lett, 2017).

How the values were obtained:
[1] = system: BV-2; test: Antiinflammatory activity in mouse BV2 cells assessed as inhibition of LPS-stimulated nitric oxide production by Griess assay; type: functional, cell-based
[2] = Cytotoxicity against mouse BV2 cells assessed as cell viability at 40 uM relative to control; type: cell-based, BV-2; settings: read-out: Activity
[3] = system: BV-2; test: Antiinflammatory activity in mouse BV2 cells assessed as inhibition of LPS-stimulated nitric oxide production at 40 uM by Griess assay relative to control; type: functional

| IC50 [1] [µM] | Structure (SMILES) | viability at 40 µM [2] [%] | inhibition at 40 µM [3] [%] |
| --- | --- | --- | --- |
| 28.3 | C=C1CCC[C@H]2[C@](C)(C[C@@H]3C(=O)C=C(OC)[C@@H]3O)[C@@H](C)CC[C@]12C | 174 | > 50 |
| > 40 | C=C1CCC[C@H]2[C@](C=O)(Cc3cc(C(=O)OC)c(O)c(OC)c3O)[C@@H](C)CC[C@]12C | 106 |  |
| > 40 | C=C1CCC[C@H]2[C@](C)(Cc3c(O)c(OC)cc4ncoc34)[C@@H](C)CC[C@]12C | 92.1 |  |
| 24.4 | C=C1CCC[C@H]2[C@](CO)(Cc3cc(C(=O)OC)c(O)c(OC)c3O)[C@@H](C)CC[C@]12C | 160 | > 50 |
| 30.1 | C=C1CCC[C@H]2[C@](C)(C[C@H]3C(=O)C=C(OC)[C@@H]3O)[C@@H](C)CC[C@]12C | 141 | > 50 |
| 24.4 | C=C1CCC[C@H]2[C@](CO)(Cc3cc(C(=O)OC)cc(OC)c3O)[C@H](C)CC[C@]12C | 171 | > 50 |
| > 40 | C=C1CCC[C@H]2[C@](C)(Cc3cc(C(=O)OC)ccc3O)[C@@H](C)CC[C@]12C | 121 |  |
| 10.4 | C=C1CCC[C@H]2[C@](C)(CC3=C(O)C(=O)C=C(OC)C3=O)[C@@H](C)CC[C@]12C [ILIMAQUINONE] | 95.7 | > 50 |
| > 40 | C=C1CCC[C@H]2[C@](C)(Cc3cc(C(=O)OC)cc(OC)c3O)[C@@H](C)CC[C@]12C [POLYFIBROSPONGOL A] | 125 |  |
| 22.1 | CNC(=N)NCCC[C@H](N)C(=O)O [TILARGININE] | 95.5 |  |
